Assay results as given in publication PMC10876507, “Chelator impact: investigating the pharmacokinetic behavior of copper-64 labeled PD-L1 radioligands” (EJNMMI Radiopharmacy and Chemistry, 2024).

Experiments:
[1] = n-octanol/PBS pH 7.4, shake flask
Method: The n-octanol/water distribution coefficients for each radioligand were determined using the shake-flask method. Each experiment was conducted in triplicate. To initiate the experiment, 30 µL of the labeling mixture was combined with 570 µL of PBS (pH 7.4) and 600 µL of n-octanol in a 1.5 mL Eppendorf-Tube. The resulting mixture was shaken at room temperature at 1500 rpm for 5 min before undergoing centrifugation. An aliquot was extracted from each phase, and radioactivity was measured on a γ-counter (ISOMED 2160). Subsequently, mean values were calculated and adjusted for background activity. The log D7.4 value was determined utilizing the equation: logD7.4=logAn-octanol/APBS

[2] = system: PC3 PD-L1 overexpressing and PD-L1-mock tumors; assay: PET imaging in NMRI-nude mice bearing PC3 PD-L1 and PC3 mock tumors; type: in vivo; details: for reduction of PD-L1 positive tumor uptake under blocking conditions / reduction of liver uptake under blocking conditions / contrast of PD-L1 positive tumor SUVmax over mock tumor: 1–2 h p.i.; for reduction of PD-L1 positive tumor uptake under blocking conditions / reduction of liver uptake under blocking conditions: 500 nmol unlabeled compound; for contrast of PD-L1 positive tumor SUVmax over mock tumor: percent higher than mock tumor; for excretion pattern / clearance route in PET / SUVmax PC3 PD-L1 tumor, blocking / SUVmax PC3 mock tumor, blocking / SUVmax kidney, blocking / SUVmax liver, blocking / SUVmax PC3 PD-L1 tumor / SUVmax PC3 mock tumor / SUVmax kidney / SUVmax liver: mice; for excretion pattern / clearance route in PET: PET 0–25 h p.i.; for SUVmax PC3 PD-L1 tumor / SUVmax PC3 mock tumor / SUVmax kidney / SUVmax liver: tracer only, i.v.
Method: Male athymic NMRI-nude mice (Rj:NMRI-Foxn1nu, Janvier Labs, Le Genest-Saint-Isle, France) aged between 8 to 16 weeks were employed for the study. General anesthesia was induced [~ 10% desflurane (Baxter, Deerfield, IL, USA) in 30 vol% oxygen + air] under controlled warming (37°C), and mice were subcutaneously injected with 3–5 × 10^6 PC3 PD-L1 and PC3 mock cells (in 50 µL PBS + 50 µL Matrigel, Corning, Glendale, CA, USA) into the right and left thigh, respectively. The growth of tumors was systematically monitored three times per week through caliper measurements, and animals with tumor sizes above 7 mm were included in the subsequent experiments.
PET and X-ray computed tomography (CT) scans were conducted under general anesthesia using a small animal nanoScan PET/CT scanner (Mediso, Budapest, Hungary), capable of imaging four animals simultaneously. CT images served attenuation correction and anatomical referencing. A total of three individual scans were conducted, corresponding to the timeframes of 0–2 h (dynamic reconstruction), 4–5 h, and 24–25 h (one frame reconstruction) after injection.
The PD-L1 radiotracer candidates (in 300 µL sterile 0.9% NaCl/HEPES buffer, pH 6–7, containing between 7 and 12 MBq, with molar activities exceeding 12 GBq/µmol) were intravenously delivered over 30 s through a catheter in the lateral tail vein. The PET acquisition was initiated simultaneously with the administration.
The acquired three-dimensional list mode data were sorted and binned within a 400–600 keV energy window, forming […] (15 × 10 s, 5 × 30 s, 5 × 60 s, 4 × 300 s, 3 × 600 s, 3 × 1200 s). Reconstruction of the time frames was accomplished using the Tera-TomoTM 3D algorithm, utilizing a voxel size of 0.4 mm and applying corrections for decay, scatter, and attenuation. The images were subjected to post-processing and analysis using Rover software (ABX GmbH, Radeberg, Germany), and were depicted as maximum intensity projections (MIPs) at the specified timepoints and scaling.
Three-dimensional volumes of interest were defined using fixed thresholding at 35–40% of the maximal measured intensity. Standardized uptake values (SUV = [MBq detected activity/mL tissue] / [MBq injected activity/g body weight], in mL/g) were then calculated within the selected volumes of interest, encompassing PD-L1 and mock tumors, as well as metabolizing organs.

[3] = Proteolytic stability in human serum at 37 °C, radio-HPLC; type: in vitro ADME; details: 48 h
Method: For proteolytic stability studies, a solution of the radiolabeled compound was diluted with human serum in a ratio of 1:10. This mixture then underwent incubation at 37 °C while being shaken at 300 rpm. At each designated timepoint (1, 24 and 48 h), an aliquot was withdrawn and added to a detergent solution (water with 20% v/v EtOH, 5% v/v 5 mM aqueous EDTA, 0.5% v/v Triton X-100, 0.1% m/v saponin, 0.05% v/v 0.5 mM aqueous o-phenanthroline) in a ratio of 1:2 for precipitation of serum proteins. The mixture was cooled on ice for 5 min, followed by centrifugation at 12,000 g for 5 min. A minor portion of the resulting supernatant was subjected to analytical radio-HPLC (reversed-phase, Phenomenex Jupiter 300 C-18, 5 µm, 4.6 × 250 mm) with 10–95% acetonitrile (0.1% TFA) in water (0.1% TFA) in a linear gradient over 15 min, 1 mL/min, γ-detection). The assessment and graphical representations were performed using OriginPro® 9.0.

[4] = tracer +500 nM respective unlabeled compound (injected 5 min prior), 1-2 hour p.i.
[5] = tracer +500 nM respective unlabeled compound, 1-2 hour p.i.
[6] = tracer +500 nM respective unlabeled compound, 4-5 hour p.i.
[7] = tracer +500 nM respective unlabeled compound, 24-25 hour p.i.
[8] = 1-2 hour p.i., listed as [64Cu]Cu-16
[9] = 1-2 hour p.i., listed as [64Cu]Cu-14
[10] = 4-5 hour p.i., listed as [64Cu]Cu-14

Structure (SMILES)	Log D7.4 [1]	reduction of PD-L1 positive tumor uptake under blocking conditions [2] [%]	reduction of liver uptake under blocking conditions [2] [%]	contrast of PD-L1 positive tumor SUVmax over mock tumor [2] [%]	excretion pattern / clearance route in PET [2]	SUVmax PC3 PD-L1 tumor, blocking [2, 4]	SUVmax PC3 mock tumor, blocking [2, 5]	SUVmax kidney, blocking [2, 5]	SUVmax liver, blocking [2, 5]	SUVmax PC3 PD-L1 tumor, blocking [2, 6]	SUVmax PC3 mock tumor, blocking [2, 6]	SUVmax kidney, blocking [2, 6]	SUVmax liver, blocking [2, 6]	SUVmax PC3 PD-L1 tumor, blocking [2, 7]	SUVmax PC3 mock tumor, blocking [2, 7]	SUVmax kidney, blocking [2, 7]	SUVmax liver, blocking [2, 7]	SUVmax PC3 PD-L1 tumor ([2]; 1-2 hour p.i.)	SUVmax PC3 mock tumor ([2]; 1-2 hour p.i.)	SUVmax kidney ([2]; 1-2 hour p.i.)	other results
Cc1c(COc2cc(OCc3cncc(S(C)(=O)=O)c3)c(CN[C@@H](CS(=O)(=O)O)C(=O)NCCS(=O)(=O)O)cc2Br)cccc1-c1cccc(OCc2cn(CCCN3CCN(C(=O)[C@H](CS(=O)(=O)O)NC(=O)CCCC(=O)NC45CNCCNCC(N)(CNCCNC4)CNCCNC5)CC3)nn2)c1C.[64Cu+2] [[^64Cu]Cu-16]	–2.79 ± 0.02	10	74	107	clearance via the renal pathway	1.45 ± 0.06	0.90	7.93	1.13 ± 0.04	0.68	0.54	1.28	0.84	1.14	1.01	1.02	0.85	1.61 ± 0.93	0.78 ± 0.36	16.2 ± 15.5	SUVmax PC3 PD-L1 tumor, blocking ([2]; tracer +500 nM respective unlabeled compound (injected 5 min prior), 1-2 hour p.i., listed as [64Cu]Cu-16): 1.45; SUVmax liver, blocking ([2]; tracer +500 nM respective unlabeled compound, 1-2 hour p.i., listed as [64Cu]Cu-16): 1.13; SUVmax liver ([2]; 1-2 hour p.i.): 4.32 ± 0.02; SUVmax PC3 PD-L1 tumor [2, 8]: 1.61; SUVmax PC3 mock tumor [2, 8]: 0.78; SUVmax kidney [2, 8]: 16.18; SUVmax liver [2, 8]: 4.32; SUVmax PC3 PD-L1 tumor ([2]; 4-5 hour p.i.): 0.89; SUVmax PC3 mock tumor ([2]; 4-5 hour p.i.): 0.37; SUVmax kidney ([2]; 4-5 hour p.i.): 1.37; SUVmax liver ([2]; 4-5 hour p.i.): 2.49; SUVmax PC3 PD-L1 tumor ([2]; 24-25 hour p.i.): 1.47; SUVmax PC3 mock tumor ([2]; 24-25 hour p.i.): 0.87; SUVmax kidney ([2]; 24-25 hour p.i.): 0.90; SUVmax liver ([2]; 24-25 hour p.i.): 1.77 ± 0.08; SUVmax liver ([2]; 24-25 hour p.i., listed as [64Cu]Cu-16): 1.77; intact radioligand after incubation in human serum [3]: 89%
Cc1c(COc2cc(OCc3cncc(S(C)(=O)=O)c3)c(CN[C@@H](CS(=O)(=O)O)C(=O)NCCS(=O)(=O)O)cc2Br)cccc1-c1cccc(OCc2cn(CCCN3CCN(C(=O)[C@H](CS(=O)(=O)O)NC(=O)CC[C@H](C(=O)[O-])N4CCN(CC(=O)[O-])CCN(CC(=O)[O-])CC4)CC3)nn2)c1C.[64Cu+2] [[^64Cu]Cu-14]	–3.00 ± 0.03	13	63	99	favorable renal clearance	1.48 ± 0.44	1.19	32.81	1.25 ± 0.13	0.78	0.48	0.88	0.98	1.53	1.05	0.44	0.99	1.71 ± 0.04	0.86 ± 0.16	22.8 ± 3.0	SUVmax PC3 PD-L1 tumor, blocking ([2]; tracer +500 nM respective unlabeled compound (injected 5 min prior), 1-2 hour p.i., listed as [64Cu]Cu-14): 1.48; SUVmax liver, blocking ([2]; tracer +500 nM respective unlabeled compound, 1-2 hour p.i., listed as [64Cu]Cu-14): 1.25; SUVmax liver ([2]; 1-2 hour p.i.): 3.41 ± 0.19; SUVmax PC3 PD-L1 tumor [2, 9]: 1.71; SUVmax PC3 mock tumor [2, 9]: 0.86; SUVmax kidney [2, 9]: 22.77; SUVmax liver [2, 9]: 3.41; SUVmax PC3 PD-L1 tumor ([2]; 4-5 hour p.i.): 1.26; SUVmax PC3 mock tumor ([2]; 4-5 hour p.i.): 0.50; SUVmax kidney ([2]; 4-5 hour p.i.): 0.72 ± 0.24; SUVmax liver ([2]; 4-5 hour p.i.): 1.54 ± 0.19; SUVmax kidney [2, 10]: 0.72; SUVmax liver [2, 10]: 1.54; SUVmax PC3 PD-L1 tumor ([2]; 24-25 hour p.i.): 1.52; SUVmax PC3 mock tumor ([2]; 24-25 hour p.i.): 1.49; SUVmax kidney ([2]; 24-25 hour p.i.): 0.63; SUVmax liver ([2]; 24-25 hour p.i.): 1.41; intact radioligand after incubation in human serum [3]: over 95%
